# Target: ALPK1 (Homo sapiens (Human), UniProt Q96QP1)
# Assay: ALPK1 in vitro kinase assay (HTRF of TIFA phosphorylation)
# Format: biochemical
# Conditions: ALPK1 2 nM, TIFA substrate, ADP-Heptose activator, HTRF readout
# Source text: In embodiments, a compound of Formula I, or a subembodiment described herein, is an inhibitor of ALPK1 as measured, for example, in an in vitro kinase assay, or an assay designed to measure the activation of downstream targets of ALPK1 pathway activation, for example NFkB transcriptional activation and the secretion of proinflammatory cytokines and chemokines, such as IL-8, which is also referred to as CXCL-8. In general, the computer program XL fit was used for data analysis, including non-linear regression analysis. The half maximal inhibitory concentration (IC50) was used as the measure of a compound's effectiveness in the assays. IC50 values were determined using the following logistic equation Y=min+(max−min)/(1+(X/IC50^−hillslpoe), where Y is the value at the compound concentration, X. The concentration response curve fitting was conducted using GraphPad Prism version 6.00 software.
# ALPK1 kinase activity was measured in an in vitro assay using ADP-Heptose as the ALPK1 ligand and activator of its kinase activity and TIFA protein as the ALPK1 phosphorylation substrate. Since phosphorylated TIFA proteins oligomerize, Homogeneous Time-Resolved Fluorescence (HTRF) was used to measure protein:protein interaction between HA-tagged TIFA proteins as an indicator of TIFA phosphorylation.
# In brief, dose-response studies were performed with HEK293 cells cultured in Dulbecco's Modified Eagle Medium (DMEM) supplemented 10% fetal bovine serum (FBS, Hyclone™) containing antibiotics (pen/strep, G418) in 384-well assay plates. Each well contained 0.1 mg TIFA, ALPK1 (2 nM final concentration in reaction mixture) and kinase buffer (100 mM of HEPES pH 7.4, 4 mM DTT, 40 mM MgCl2, 20 mM of β-Glycerol phosphate disodium salt, 0.4 mM of Na3VO4, 0.16 mg/mL). Titrations of the test compounds were prepared in dimethylsulphoxide (DMSO). The reaction was initiated by addition of ATP and ADP-Heptose.
# For HTRF, samples were incubated with a Tb cryptate-labeled anti-HA antibody for capturing HA-tagged proteins according to the manufacturer's instructions (PerkinElmer™, CisBio™) and the fluorescence signal was quantified (Tecan Infinite F NANO+). HTRF signals were calculated as the HTRF ratio (ratio of fluorescence measured at 665 nm and 620 nm)×104 (thereby using the signal at 620 nm as an internal standard).
# IC50 values were determined using 3- or 4-parameter logistic equation using GraphPad Prism version 6.00. The reference compound, A027, was used as a positive control for each plate.
# ALPK1, sequence (Q96QP1 whole entry): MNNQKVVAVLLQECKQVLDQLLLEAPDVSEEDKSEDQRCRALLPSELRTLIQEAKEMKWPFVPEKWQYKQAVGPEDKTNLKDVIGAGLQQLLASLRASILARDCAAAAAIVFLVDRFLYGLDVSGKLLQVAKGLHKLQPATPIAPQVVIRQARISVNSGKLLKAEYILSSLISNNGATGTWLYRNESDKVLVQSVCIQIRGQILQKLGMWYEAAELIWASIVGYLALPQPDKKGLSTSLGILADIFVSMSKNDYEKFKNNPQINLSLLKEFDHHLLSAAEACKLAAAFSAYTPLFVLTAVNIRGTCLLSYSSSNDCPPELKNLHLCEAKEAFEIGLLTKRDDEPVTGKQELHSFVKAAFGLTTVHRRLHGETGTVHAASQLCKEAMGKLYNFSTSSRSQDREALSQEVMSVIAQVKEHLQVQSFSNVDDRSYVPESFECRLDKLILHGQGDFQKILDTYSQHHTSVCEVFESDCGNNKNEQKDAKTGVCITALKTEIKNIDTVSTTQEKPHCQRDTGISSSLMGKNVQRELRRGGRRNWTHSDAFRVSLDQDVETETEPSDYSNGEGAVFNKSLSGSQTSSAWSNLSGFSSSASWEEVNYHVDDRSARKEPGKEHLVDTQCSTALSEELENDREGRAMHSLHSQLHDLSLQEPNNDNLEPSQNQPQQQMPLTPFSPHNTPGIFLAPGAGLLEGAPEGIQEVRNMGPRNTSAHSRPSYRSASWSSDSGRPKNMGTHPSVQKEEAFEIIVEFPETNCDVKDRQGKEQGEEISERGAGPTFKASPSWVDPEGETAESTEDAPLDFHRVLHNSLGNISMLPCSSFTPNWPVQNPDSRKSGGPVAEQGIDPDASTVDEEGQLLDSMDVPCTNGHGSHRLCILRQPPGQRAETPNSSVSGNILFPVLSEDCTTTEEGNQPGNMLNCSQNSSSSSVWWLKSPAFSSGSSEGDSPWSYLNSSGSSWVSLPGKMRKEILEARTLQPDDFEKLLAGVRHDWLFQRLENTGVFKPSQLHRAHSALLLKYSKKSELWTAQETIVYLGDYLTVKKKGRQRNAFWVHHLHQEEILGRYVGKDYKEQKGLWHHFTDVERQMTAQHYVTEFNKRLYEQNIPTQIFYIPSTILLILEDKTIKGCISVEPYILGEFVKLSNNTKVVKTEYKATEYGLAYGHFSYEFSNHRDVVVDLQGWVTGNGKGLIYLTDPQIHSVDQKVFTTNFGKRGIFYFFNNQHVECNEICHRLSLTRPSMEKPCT
row,Compound,IC50 [nM]
1,"COc1ccc(C(C)(C)c2csc(NC(=O)c3ccc(CN4CCNCC4)cc3F)n2)cc1 [Example B013, 2-fluoro-N-(4-(2-(4-methoxyphenyl)propan-2-yl)thiazol-2-yl)-4-(piperazin-1-ylmethyl)benzamide]",111
2,COc1ccc(C(C)(C)c2csc(NC(=O)c3ccc(N4CCNCC4C)cc3)n2)cc1 (stereo not shown) [Example B014],300
3,"COc1ccc(C(C)(C)c2csc(NC(=O)c3cnc(N4CCNCC4)nc3)n2)cc1 [Example B015, N-(4-(2-(4-methoxyphenyl)propan-2-yl)thiazol-2-yl)-2-(piperazin-1-yl)pyrimidine-5-carboxamide]",161
4,"CC(C)(c1ccc(Br)cc1)c1csc(NC(=O)c2ccc(N3CCNCC3)cc2)n1 [Example B016, N-(4-(2-(4-bromophenyl)propan-2-yl)thiazol-2-yl)-4-(piperazin-1-yl)benzamide]",60
5,"COc1ccc(C(C)(C)c2csc(NC(=O)c3ccc(CN4CCN(C)CC4)cc3)n2)cc1 [Example B017, N-(4-(2-(4-methoxyphenyl)propan-2-yl)thiazol-2-yl)-4-((4-methylpiperazin-1-yl)methyl)benzamide]",148
6,"COc1ccc(C(C)(C)c2csc(NC(=O)c3cccc(CN4CCN(CCO)CC4)c3)n2)cc1 [Example B018, 3-((4-(2-hydroxyethyl)piperazin-1-yl)methyl)-N-(4-(2-(4-methoxyphenyl)propan-2-yl)thiazol-2-yl)benzamide]",187
7,"CC(c1ccc(C(=O)Nc2nc(C(C)(C)c3ccc(Br)cc3)cs2)cc1)N1CCNCC1 (stereo not shown) [Example B019, N-(4-(2-(4-bromophenyl)propan-2-yl)thiazol-2-yl)-4-(1-(piperazin-1-yl)ethyl)benzamide]",98
8,"COc1ccc(C(C)(C)c2csc(NC(=O)c3ccc(OC4CCN(CCO)CC4)cc3)n2)cc1 [Example B020, 4-((1-(2-hydroxyethyl)piperidin-4-yl)oxy)-N-(4-(2-(4-methoxyphenyl)propan-2-yl)thiazol-2-yl)benzamide]",170
9,"COc1ccc(C(C)(C)c2csc(NC(=O)c3ccc(OCCN(C)C)cc3)n2)cc1 [Example B021, 4-(2-(dimethylamino)ethoxy)-N-(4-(2-(4-methoxyphenyl)propan-2-yl)thiazol-2-yl)benzamide]",83
10,"COc1ccc(C(C)(C)c2csc(NC(=O)c3ccc(OCCCN4CCNCC4)cc3)n2)cc1 [Example B022, N-(4-(2-(4-methoxyphenyl)propan-2-yl)thiazol-2-yl)-4-(3-(piperazin-1-yl)propoxy)benzamide]",294
11,"COc1ccc(C(C)(C)c2csc(NC(=O)c3cccc(OCCCN4CCNCC4)c3)n2)cc1 [Example B023, N-(4-(2-(4-methoxyphenyl)propan-2-yl)thiazol-2-yl)-3-(3-(piperazin-1-yl)propoxy)benzamide]",150
12,"COc1ccc(C(C)(C)c2csc(NC(=O)c3ccc(OCCN4CCNCC4)cc3)n2)cc1 [Example B024, N-(4-(2-(4-methoxyphenyl)propan-2-yl)thiazol-2-yl)-4-(2-(piperazin-1-yl)ethoxy)benzamide]",116
13,"COc1ccc(C(C)(C)c2csc(NC(=O)c3cnc(N4CCNCC4)cn3)n2)cc1 [Example B025, N-(4-(2-(4-methoxyphenyl)propan-2-yl)thiazol-2-yl)-5-(piperazin-1-yl)pyrazine-2-carboxamide]",298
14,"COc1ccc(C(C)(C)c2csc(NC(=O)c3ccc(CN4CCNCC4C)cc3)n2)cc1 (stereo not shown) [Example B026, N-(4-(2-(4-methoxyphenyl)propan-2-yl)thiazol-2-yl)-4-((2-methylpiperazin-1-yl)methyl)benzamide]",127
15,"COc1ccc(C(C)(C)c2csc(NC(=O)c3ccc(N4CCC(N(C)C)C4)cc3)n2)cc1 (stereo not shown) [Example B027, 4-(3-(dimethylamino)pyrrolidin-1-yl)-N-(4-(2-(4-methoxyphenyl)propan-2-yl)thiazol-2-yl)benzamide]",219
16,"COc1ccc(C(C)(C)c2csc(NC(=O)c3ccc(NC4CCN(C)CC4)cc3)n2)cc1 [Example B028, N-(4-(2-(4-methoxyphenyl)propan-2-yl)thiazol-2-yl)-4-((1-methylpiperidin-4-yl)amino)benzamide]",271
17,"COc1ccc(C(C)(C)c2csc(NC(=O)c3ccc(C(=O)NC4CCN(C)CC4)cc3)n2)cc1 [Example B030, N1-(4-(2-(4-methoxyphenyl)propan-2-yl)thiazol-2-yl)-N4-(1-methylpiperidin-4-yl)terephthalamide]",155
18,"Cc1ccc(C(C)(C)c2csc(NC(=O)c3ccc(N4CCNCC4)cc3)n2)cc1 [Example B031, 4-(piperazin-1-yl)-N-(4-(2-(p-tolyl)propan-2-yl)thiazol-2-yl)benzamide]",37
19,"COc1ccc(C(C)(C)c2csc(NC(=O)c3ccc(NCCO)cc3)n2)cc1 [Example B032, 4-((2-hydroxyethyl)amino)-N-(4-(2-(4-methoxyphenyl)propan-2-yl)thiazol-2-yl)benzamide]",280
20,"COc1ccc(C(C)(C)c2csc(NC(=O)c3ccc(NCCN)cc3)n2)cc1 [Example B033, 4-((2-aminoethyl)amino)-N-(4-(2-(4-methoxyphenyl)propan-2-yl)thiazol-2-yl)benzamide]",247
21,"COc1ccc(C(C)(C)c2csc(NC(=O)c3ccc(CN4CCN(CCO)CC4)cc3)n2)cc1 [Example B034, 4-((4-(2-hydroxyethyl)piperazin-1-yl)methyl)-N-(4-(2-(4-methoxyphenyl)propan-2-yl)thiazol-2-yl)benzamide]",44
22,"CC(C)(c1ccc(Br)cc1)c1csc(NC(=O)c2ccc(N3CCNCC3)nc2)n1 [Example B035, N-(4-(2-(4-bromophenyl)propan-2-yl)thiazol-2-yl)-6-(piperazin-1-yl)nicotinamide]",75
23,"CC(C)(c1ccc(Br)cc1)c1csc(NC(=O)c2cnc(N3CCNCC3)nc2)n1 [Example B036, N-(4-(2-(4-bromophenyl)propan-2-yl)thiazol-2-yl)-2-(piperazin-1-yl)pyrimidine-5-carboxamide]",110
24,"CC(C)(c1ccc(Br)cc1)c1csc(NC(=O)NCc2cc(F)c(N3CCNCC3)c(F)c2)n1 [Example B037, 1-(4-(2-(4-bromophenyl)propan-2-yl)thiazol-2-yl)-3-(3,5-difluoro-4-(piperazin-1-yl)benzyl)urea]",23
25,"COc1ccc(C(C)(C)c2cnc(NC(=O)c3ccc(N4CCNCC4)c(F)c3)s2)cc1 [Example B038, 3-fluoro-N-(5-(2-(4-methoxyphenyl)propan-2-yl)thiazol-2-yl)-4-(piperazin-1-yl)benzamide]",216
26,"COc1ccc(C(C)(C)c2csc(NC(=O)c3ccc(N4CCNCC4)c(OC)c3)n2)cc1 [Example B039, 3-methoxy-N-(4-(2-(4-methoxyphenyl)propan-2-yl)thiazol-2-yl)-4-(piperazin-1-yl)benzamide]",123
27,"COc1ccc(C(C)(C)c2csc(NC(=O)c3ccc(CN4CCNCC4)cc3)n2)cc1 [Example B040, N-(4-(2-(4-methoxyphenyl)propan-2-yl)thiazol-2-yl)-4-(piperazin-1-ylmethyl)benzamide]",93
28,"COc1ccc(C(C)(C)c2csc(NC(=O)c3ccc(N4CCC(N)C4)cc3)n2)cc1 (stereo not shown) [Example B041, 4-(3-aminopyrrolidin-1-yl)-N-(4-(2-(4-methoxyphenyl)propan-2-yl)thiazol-2-yl)benzamide]",80

# Reference: patent publication US20240109853A1 (Shanghai Yao Yuan Biotechnology Co., Ltd., priority 2020, published 2024)
